From patent publication US20260317304A1, “TEAD INHIBITORS AND METHODS OF USE” (Sporos BioDiscovery, Inc., priority 2022, published 2026) come the findings set out here.

Structures are written as SMILES.

In one experiment the test system is MSTO-211H xenograft. Description: Mouse xenograft MSTO-211H tumors, study part 1. The conditions noted are these: PO; for Tumor size (mean ± SEM) / T/C / TGI: BID; for Tumor Volume (mean ± SEM): BID (Table 16). The format is in vivo, BALB/c nude mice. The text has this:
This study evaluated the in vivo anti-tumor efficacy of test compounds in BALB/c nude mice for treatment of MSTO-211H xenograft of lung cancer.
• Species: Mus Musculus • Strain: BALB/c nude • Age: 6-8 weeks • Sex: female • Body weight: 18-22 g • Number of animals inoculated with tumor: 80 mice • Number of animals enrolled in the treatment: 36 mice • Number of unenrolled animals: 44 mice • Animal supplier: Beijing Vital River Biotechnology Experimental Animal Co. Ltd Certification number: 20170011010591
The MSTO-211H tumor cells were maintained in RPMI 1640 medium supplemented with 10% Fetal bovine serum and 1% Antibiotic-Antimycotic at 37° C. in an atmosphere of 5% CO2 in air. The tumor cells were routinely subcultured twice weekly by trypsin-EDTA. The cells growing in an exponential growth phase with 95% cell survival or above were harvested, and counted for tumor inoculation.
Each mouse was inoculated subcutaneously at the right flank with MSTO-211H tumor cells (5×10^6+50% matrigel/0.2 mL) for tumor development. Animals were marked with earrings with unique 6 significant figure number for identification. The treatments of part 1 were started on day 5 after cell inoculation when the average tumor volume reached 181 mm^3. The treatments of part 2 were started on day 16 after cell inoculation when the average tumor volume reached 254 mm^3. The treatments of part 3 were started on day 33 after cell inoculation when the average tumor volume reached 969 mm^3.
The major endpoint was to determine if the tumor growth could be delayed. Tumor volume was measured twice a week in two dimensions using a caliper, and the volume was expressed in mm^3 using the formula: V=0.5 a×b^2 where a and b are the long and short diameters of the tumor, respectively. The tumor size was then used for calculations of T/C value. The TGI value (in percent) or the T/C value (in percent) is an indication of antitumor effectiveness; T and C are the mean tumor volumes or tumor weights of the treated and control groups, respectively, on a given day.
TGI was calculated for each group using the formula: TGI (%)=[1−(Ti−T0)/(Vi−V0)]×100; Ti is the average tumor volume of a treatment group on a given day, T0 is the average tumor volume of the treatment group on the day of treatment start, Vi is the average tumor volume of the vehicle control group on the same day with Ti, and V0 is the average tumor volume of the vehicle group on the day of treatment start.
Relative T/C (%)=TRTV/CRTV×100 (RTV (%)=Vt/V0×100, Vt is the average tumor volume on a given day, V0 is the average tumor volume on the first day of treatment. TRTV is the RTV of a treatment group, and the CRTV is the RTV of the vehicle control group.)
The antitumor effectiveness of part 1 study was analyzed on PG-D31 when vehicle group reached 681 mm^3.
Summary statistics, including mean and the standard error of the mean (SEM), were provided for the tumor volume of each group at each time point.
Statistical analysis of difference in tumor volume among the groups was conducted on the data obtained at the end of the study.
One-tailed T test was performed to compare tumor volumes between two groups. All data are analyzed using GraphPad Prism 6.0. p<0.05 is considered to be statistically significant.

In the next experiment the test system is MSTO-211H cells. Description: MSTO-211H proliferation and cell viability assay (CTG). The format is cell-based. Particulars: Homo sapiens, 144 hours. The method, then:
MSTO-211H cells were trypsinised, counted and plated at 1500 cells/well in 200 μl of growth media in 96 well flat bottom tissue culture treated plates. The plated cells were incubated overnight at 37° C., 5% CO2 before being treated with compounds in triplicate for each assay point. 50 μl of the serially diluted compound was added to each well giving a final DMSO concentration of 0.5% per well and a total volume of 250 μl per well. The treated cells were incubated for 144 hours (6 days) at 37° C., 5% CO2. Following compound treatment, the remaining viable cells were detected using the Promega CellTiter-Glo 2.0 assay as follows: 150 μl of media was removed from each of the wells to be assayed and 100 μl of room temperature CellTiter-Glo 2.0 reagent was added. The plate was placed on an orbital shaker at 500 rpm at room temperature for 2 minutes, and then incubated without shaking for a further 10 minutes at room temperature. 150 μl of cell lysate was removed from each well and dispensed into a single well of a white opaque 96 well plate. Luminescence at 545 nm was read using a BMG CLARIOstar plate reader. The luminescent signal was directly proportional to number of viable cells, the percent of viable cells relative to the DMSO control was then calculated for each assay point. Percent viability relative to DMSO control was plotted against compound concentration and a curve fitted with non-linear regression in GraphPad Prism software. EC50 and absolute IC50 values were calculated using GraphPad Prism software as follows: For EC50 values a non-constrained four-parameter logistic curve fit was used (Sigmoidal, 4PL, X is concentration). For Absolute IC50 values the baseline was constrained to Y=0 and top at 100 (Absolute IC50, X is concentration). Area Under the Curve (AUC): Prism computes area-under-the-curve by the trapezoidal method. The analysis sees a fitted curve as simply a series of connected XY points. Prism simply computes the area under the “curve” defined by connecting the points by straight lines. The units of the AUC are the units of the Y axis times units of the X axis.
For EC50 data, the symbol “A” indicates a value of less than 0.2 μM; the symbol “B” indicates a value in the range of from 0.2 μM up to 1 μM; and the symbol “C” indicates a value of greater than 1 μM.

What is called T/C is the ratio of treated to control. For orientation: EC50 means the concentration needed to bring the measured effect to its halfway point. A high value points to lower potency in that assay. As for `Cn1cnc(-c2cc([C@@]3(C)CCNC3=O)ccc2Nc2ccc(C(F)(F)F)cc2)c1` (single isomer, unassigned) [Compound 5, 3-methyl-3-(3-(1-methyl-1H-imidazol-4-yl)-4-((4-(trifluoromethyl)phenyl)amino)phenyl)pyrrolidin-2-one], the “Tumor size (mean ± SEM)” value with MSTO-211H xenograft (part 1, day 0, 12.5 mg/kg) was 181 ± 11 mm^3; in the experiment with MSTO-211H xenograft (part 1, day 3, 12.5 mg/kg), 241 ± 31 mm^3; in the experiment on MSTO-211H xenograft (part 1, day 6, 12.5 mg/kg), 230 ± 30 mm^3; in the experiment on MSTO-211H xenograft (part 1, day 10, 12.5 mg/kg), 151 ± 18 mm^3; in the experiment with MSTO-211H xenograft (part 1, day 13, 12.5 mg/kg) it was 117 ± 10 mm^3; in the experiment on MSTO-211H xenograft (part 1, day 17, 12.5 mg/kg), 63 ± 13 mm^3. The “Tumor size (mean ± SEM)” value in the experiment on MSTO-211H xenograft (part 1, day 20, 12.5 mg/kg) came out at 72 ± 15 mm^3; with MSTO-211H xenograft (part 1, day 23, 12.5 mg/kg), 64 ± 7 mm^3; in the experiment with MSTO-211H xenograft (part 1, day 27, 12.5 mg/kg) it was 79 ± 13 mm^3; in the experiment on MSTO-211H xenograft (part 1, day 31, 12.5 mg/kg), 81 ± 18 mm^3. The same molecule registered a T/C in the experiment with MSTO-211H xenograft (part 1, day 31, 12.5 mg/kg) of 11.82%. The TGI in the experiment on MSTO-211H xenograft (part 1, day 31, 12.5 mg/kg) is given as 120.17%. Moreover, in the experiment on MSTO-211H xenograft (part 1, day 31, 12.5 mg/kg), the “Tumor Volume (mean ± SEM)” value stood at 81 ± 18 mm^3. This molecule also showed an EC50 with MSTO-211H cells of under 0.2 µM.

Consider `Cn1cnc(-c2cc(C3(C)NC(=O)NC3=O)ccc2Nc2ccc(C(F)(F)F)cc2)c1` (single isomer, unassigned) [Compound 15, 5-methyl-5-(3-(1-methyl-1H-imidazol-4-yl)-4-((4-(trifluoromethyl)phenyl)amino)phenyl)imidazolidine-2,4-dione], for which the “Tumor size (mean ± SEM)” value in the experiment with MSTO-211H xenograft (part 1, day 0, 12.5 mg/kg) is recorded as 181 ± 11 mm^3; with MSTO-211H xenograft (part 1, day 3, 12.5 mg/kg), 216 ± 27 mm^3; in the experiment on MSTO-211H xenograft (part 1, day 6, 12.5 mg/kg) it was 175 ± 19 mm^3; in the experiment on MSTO-211H xenograft (part 1, day 10, 12.5 mg/kg), 154 ± 5 mm^3; in the experiment on MSTO-211H xenograft (part 1, day 13, 12.5 mg/kg) it was 111 ± 13 mm^3; in the experiment with MSTO-211H xenograft (part 1, day 17, 12.5 mg/kg) it was 88 ± 12 mm^3. Further, the “Tumor size (mean ± SEM)” value in the experiment with MSTO-211H xenograft (part 1, day 20, 12.5 mg/kg) was 105 ± 6 mm^3; with MSTO-211H xenograft (part 1, day 23, 12.5 mg/kg), 134 ± 10 mm^3; in the experiment with MSTO-211H xenograft (part 1, day 27, 12.5 mg/kg), 166 ± 20 mm^3; in the experiment on MSTO-211H xenograft (part 1, day 31, 12.5 mg/kg), 161 ± 12 mm^3. In the experiment with MSTO-211H xenograft (part 1, day 31, 12.5 mg/kg), this molecule registered a T/C of 23.57%. Also, the TGI in the experiment with MSTO-211H xenograft (part 1, day 31, 12.5 mg/kg) is 104.12%. Further, in the experiment on MSTO-211H xenograft (part 1, day 31, 12.5 mg/kg), the “Tumor Volume (mean ± SEM)” value is 161 ± 12 mm^3. In the experiment with MSTO-211H cells, this molecule showed an EC50 of under 0.2 µM.

On to `Cn1nnc(-c2cc([C@]3(C)CCNC3=O)ccc2Nc2ccc(C(F)(F)F)cc2)n1` (stereo in doubt) [Compound 20, 3-methyl-3-(3-(2-methyl-2H-tetrazol-5-yl)-4-((4-(trifluoromethyl)phenyl)amino)phenyl) pyrrolidin-2-one], for which the “Tumor size (mean ± SEM)” value was 181 ± 7 mm^3 in the experiment with MSTO-211H xenograft (part 1, day 0, 12.5 mg/kg); 183 ± 26 mm^3 in the experiment on MSTO-211H xenograft (part 1, day 3, 12.5 mg/kg); 188 ± 52 mm^3 in the experiment with MSTO-211H xenograft (part 1, day 6, 12.5 mg/kg); 117 ± 44 mm^3 in the experiment on MSTO-211H xenograft (part 1, day 10, 12.5 mg/kg); 92 ± 28 mm^3 in the experiment with MSTO-211H xenograft (part 1, day 13, 12.5 mg/kg); 66 ± 10 mm^3 in the experiment with MSTO-211H xenograft (part 1, day 17, 12.5 mg/kg). In addition, the “Tumor size (mean ± SEM)” value in the experiment on MSTO-211H xenograft (part 1, day 20, 12.5 mg/kg) stood at 60 ± 13 mm^3; in the experiment on MSTO-211H xenograft (part 1, day 23, 12.5 mg/kg) it was 59 ± 16 mm^3; in the experiment on MSTO-211H xenograft (part 1, day 27, 12.5 mg/kg) it was 75 ± 18 mm^3; with MSTO-211H xenograft (part 1, day 31, 12.5 mg/kg) it was 60 ± 11 mm^3. Also, the T/C in the experiment with MSTO-211H xenograft (part 1, day 31, 12.5 mg/kg) came to 8.81%. In addition, the TGI with MSTO-211H xenograft (part 1, day 31, 12.5 mg/kg) is reported as 124.25%. The “Tumor Volume (mean ± SEM)” value in the experiment with MSTO-211H xenograft (part 1, day 31, 12.5 mg/kg) is 60 ± 11 mm^3. Besides, the concentration for a half-maximal effect (EC50) in the experiment on MSTO-211H cells was under 0.2 µM.

Molecule `FC(F)(F)c1ccc(CN2CCC(C3CC(Br)=NO3)CC2)cc1` (centres unmarked) [Compound 1-2, reference compound] displayed an EC50 with MSTO-211H cells of under 0.2 µM.

Regarding `C=CC(=O)Nc1ccc(C)c(Oc2ccc(Cl)cc2)c1` [Compound 1-3, reference compound], the 50% effective concentration (EC50) in the experiment on MSTO-211H cells was under 0.2 µM.
